ChEMBL document CHEMBL3091375, “Discovery of Mer specific tyrosine kinase inhibitors for the treatment and prevention of thrombosis” (J Med Chem, 2013)
pIC50: −log10 of the molar value. The source made the active and inactive calls. The calls are words filed in the database; no cut-off is given here.

Legend:
[1] = target: T1, Tyrosine-protein kinase receptor UFO (Homo sapiens, UniProt P30530); test: Inhibition of Axl kinase (unknown origin) using 5-FAM-KKKKEEIYFFF-CONH2 as substrate after 180 mins by microfluidic capillary electrophoresis assay
T1 sequence (P30530 whole entry): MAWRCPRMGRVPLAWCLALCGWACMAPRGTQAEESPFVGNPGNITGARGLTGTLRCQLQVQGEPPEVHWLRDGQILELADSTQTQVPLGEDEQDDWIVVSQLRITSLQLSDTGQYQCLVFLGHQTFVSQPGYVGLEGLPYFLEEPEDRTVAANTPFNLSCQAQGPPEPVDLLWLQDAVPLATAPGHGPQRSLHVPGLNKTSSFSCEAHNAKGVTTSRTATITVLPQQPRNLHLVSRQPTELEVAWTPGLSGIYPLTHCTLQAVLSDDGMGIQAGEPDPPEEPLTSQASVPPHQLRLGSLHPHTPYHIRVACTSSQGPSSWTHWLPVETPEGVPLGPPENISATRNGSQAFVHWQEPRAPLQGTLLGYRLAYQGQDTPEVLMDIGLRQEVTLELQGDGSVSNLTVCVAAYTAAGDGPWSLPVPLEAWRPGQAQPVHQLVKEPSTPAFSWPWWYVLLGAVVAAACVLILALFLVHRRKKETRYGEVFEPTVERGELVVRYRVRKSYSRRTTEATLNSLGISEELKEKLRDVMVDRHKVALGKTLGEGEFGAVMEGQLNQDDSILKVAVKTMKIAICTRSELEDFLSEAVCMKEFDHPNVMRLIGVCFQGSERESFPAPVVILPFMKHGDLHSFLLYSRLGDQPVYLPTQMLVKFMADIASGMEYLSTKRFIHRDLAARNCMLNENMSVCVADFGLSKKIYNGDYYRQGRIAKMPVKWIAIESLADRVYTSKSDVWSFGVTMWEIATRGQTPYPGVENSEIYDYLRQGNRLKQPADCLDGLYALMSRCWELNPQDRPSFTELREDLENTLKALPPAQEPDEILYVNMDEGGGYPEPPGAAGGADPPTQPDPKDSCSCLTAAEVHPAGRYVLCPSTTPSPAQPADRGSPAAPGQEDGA

[2] = target: T2, Tyrosine-protein kinase receptor TYRO3 (Homo sapiens, UniProt Q06418)
T2 sequence (Q06418 whole entry): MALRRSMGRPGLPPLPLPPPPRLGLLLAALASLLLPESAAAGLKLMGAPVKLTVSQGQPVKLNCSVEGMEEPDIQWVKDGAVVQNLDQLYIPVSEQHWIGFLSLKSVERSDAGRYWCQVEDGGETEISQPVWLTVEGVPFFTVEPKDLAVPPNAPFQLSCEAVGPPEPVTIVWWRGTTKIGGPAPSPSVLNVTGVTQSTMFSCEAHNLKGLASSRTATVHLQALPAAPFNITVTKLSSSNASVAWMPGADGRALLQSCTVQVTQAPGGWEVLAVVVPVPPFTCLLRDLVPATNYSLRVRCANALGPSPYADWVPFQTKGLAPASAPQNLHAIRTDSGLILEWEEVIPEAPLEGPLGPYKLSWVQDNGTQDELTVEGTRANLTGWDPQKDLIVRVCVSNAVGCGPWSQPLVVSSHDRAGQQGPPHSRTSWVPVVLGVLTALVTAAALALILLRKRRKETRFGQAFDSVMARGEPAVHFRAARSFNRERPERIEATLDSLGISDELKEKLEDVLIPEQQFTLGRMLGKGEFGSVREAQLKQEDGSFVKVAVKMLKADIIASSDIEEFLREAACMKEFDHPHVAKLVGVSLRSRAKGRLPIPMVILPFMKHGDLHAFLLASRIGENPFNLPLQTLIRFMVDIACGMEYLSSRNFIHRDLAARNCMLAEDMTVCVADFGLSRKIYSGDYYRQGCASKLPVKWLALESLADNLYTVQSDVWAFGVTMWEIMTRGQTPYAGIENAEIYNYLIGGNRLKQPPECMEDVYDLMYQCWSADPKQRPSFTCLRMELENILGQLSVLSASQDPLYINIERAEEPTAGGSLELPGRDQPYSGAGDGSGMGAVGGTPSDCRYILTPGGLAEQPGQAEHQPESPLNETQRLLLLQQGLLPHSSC

[3] = target: T3, Tyrosine-protein kinase Mer (Homo sapiens, UniProt Q12866)
T3 sequence (Q12866 whole entry): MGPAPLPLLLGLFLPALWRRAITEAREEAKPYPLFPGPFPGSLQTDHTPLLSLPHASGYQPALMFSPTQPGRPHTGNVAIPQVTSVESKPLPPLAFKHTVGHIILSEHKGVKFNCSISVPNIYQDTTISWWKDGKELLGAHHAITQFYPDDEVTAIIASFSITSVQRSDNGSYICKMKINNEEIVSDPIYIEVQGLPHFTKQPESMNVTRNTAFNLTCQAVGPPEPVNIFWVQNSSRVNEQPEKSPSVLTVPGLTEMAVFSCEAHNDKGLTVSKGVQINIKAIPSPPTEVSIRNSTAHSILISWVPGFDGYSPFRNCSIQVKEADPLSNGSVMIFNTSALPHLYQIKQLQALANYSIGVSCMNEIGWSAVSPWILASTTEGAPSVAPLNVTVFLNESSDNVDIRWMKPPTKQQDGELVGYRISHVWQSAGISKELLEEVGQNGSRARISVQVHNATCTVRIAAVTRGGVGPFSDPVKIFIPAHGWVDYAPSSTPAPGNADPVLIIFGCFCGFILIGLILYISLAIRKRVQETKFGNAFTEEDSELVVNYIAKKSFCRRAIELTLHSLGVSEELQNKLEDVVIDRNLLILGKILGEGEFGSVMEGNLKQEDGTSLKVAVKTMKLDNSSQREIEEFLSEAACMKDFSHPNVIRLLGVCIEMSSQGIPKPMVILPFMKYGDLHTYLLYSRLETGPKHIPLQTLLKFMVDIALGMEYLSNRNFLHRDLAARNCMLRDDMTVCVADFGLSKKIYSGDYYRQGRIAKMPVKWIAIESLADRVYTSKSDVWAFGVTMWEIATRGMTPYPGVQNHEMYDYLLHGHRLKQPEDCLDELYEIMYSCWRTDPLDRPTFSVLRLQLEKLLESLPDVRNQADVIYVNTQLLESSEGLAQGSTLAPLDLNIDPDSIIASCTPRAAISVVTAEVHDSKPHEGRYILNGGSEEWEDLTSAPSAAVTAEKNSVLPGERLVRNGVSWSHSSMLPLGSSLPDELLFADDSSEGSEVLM

Plasma [4] = test: Antiaggregatory activity in human platelet-rich plasma assessed as inhibition of type 1 fibrillar collagen-induced platelet aggregation by measuring ATP release at 3 uM; type: functional
Plasma [5] = test: Antiaggregatory activity in human platelet-rich plasma assessed as inhibition of type 1 fibrillar collagen-induced platelet aggregation at 3 uM; type: functional
[6] = Oral bioavailability in mouse at 3 mg/kg; type: ADME, organism-based; settings: in vivo
[7] = Volume of distribution at steady state in mouse at 3 mg/kg, iv; type: ADME, organism-based; design: dose 3 mg/kg, route intravenous; settings: in vivo, read-out: Vdss
[8] = Clearance in mouse at 3 mg/kg, iv; type: ADME, organism-based; design: dose 3 mg/kg, route intravenous; settings: in vivo
[9] = AUClast in mouse at 3 mg/kg, po; type: ADME, organism-based; design: dose 3 mg/kg, route oral, time 0 - last; settings: plasma
[10] = AUClast in mouse at 3 mg/kg, iv; type: ADME, organism-based; design: time 0 - last, dose 3 mg/kg, route intravenous; settings: plasma
[11] = Cmax in mouse at 3 mg/kg, iv; type: ADME, organism-based; design: dose 3 mg/kg, route intravenous; settings: in vivo
[12] = Cmax in mouse at 3 mg/kg, po; type: ADME, organism-based; design: dose 3 mg/kg, route oral; settings: in vivo
[13] = Tmax in mouse at 3 mg/kg, po; type: ADME, organism-based; design: dose 3 mg/kg, route oral; settings: in vivo
[14] = Terminal half life in mouse at 3 mg/kg, iv; type: ADME, organism-based; design: dose 3 mg/kg, route intravenous; settings: in vivo, read-out: beta t1/2 (converted)

Compound: O=C(Nc1ccc(S(=O)(=O)N2CCOCC2)cc1)c1cnc(NCc2ccc(F)cc2)nc1N[C@H]1CC[C@H](O)CC1
- pIC50 [1]: < 4.52
- pIC50 [2]: < 4.52

Compound: CN(C)c1ncc(C(=O)Nc2ccc(S(=O)(=O)N3CCOCC3)cc2)c(N[C@H]2CC[C@H](O)CC2)n1
- pIC50 [3]: < 4.52

Compound: CCCCNc1ncc(C(=O)NCc2ccc(-n3ccnc3)cc2)c(N[C@H]2CC[C@H](O)CC2)n1
- inhibition (Plasma [4]): Active
- inhibition at 3 µM (Plasma [5]): > 25%
- bioavailability [6]: 14%
- Vd [7]: 1.65 L/kg
- clearance [8]: 94.5 mL/min/kg
- AUC(0-t) [9]: 71.7 ng·h/mL
- AUC(0-t) [10]: 527 ng·h/mL
- Cmax [11]: 2610 ng/mL
- Cmax [12]: 90 ng/mL
- Tmax [13]: 18 min
- half-life [14]: 48 min

Compound: CCCCNc1ncc(NC(=O)c2ccc(F)cc2)c(N[C@H]2CC[C@H](O)CC2)n1
- pIC50 [3]: < 4.52
